Measurements reported in publication PMC9775652, “Concomitant Administration of Red Ginseng Extract with Lactic Acid Bacteria Increases the Plasma Concentration of Deglycosylated Ginsenosides in Healthy Human Subjects” (Biomolecules, 2022).

Molecular target: T1, P-gp (Homo sapiens, UniProt P08183)
T1 construct: host or cells: LLC-PK1-P-gp cells (passage no. 25–28)
Assay: Transport of ginsenosides in P-gp-overexpressing LLC-PK1-P-gp cells
Format: in vitro ADME

T1 sequence (P08183 whole entry): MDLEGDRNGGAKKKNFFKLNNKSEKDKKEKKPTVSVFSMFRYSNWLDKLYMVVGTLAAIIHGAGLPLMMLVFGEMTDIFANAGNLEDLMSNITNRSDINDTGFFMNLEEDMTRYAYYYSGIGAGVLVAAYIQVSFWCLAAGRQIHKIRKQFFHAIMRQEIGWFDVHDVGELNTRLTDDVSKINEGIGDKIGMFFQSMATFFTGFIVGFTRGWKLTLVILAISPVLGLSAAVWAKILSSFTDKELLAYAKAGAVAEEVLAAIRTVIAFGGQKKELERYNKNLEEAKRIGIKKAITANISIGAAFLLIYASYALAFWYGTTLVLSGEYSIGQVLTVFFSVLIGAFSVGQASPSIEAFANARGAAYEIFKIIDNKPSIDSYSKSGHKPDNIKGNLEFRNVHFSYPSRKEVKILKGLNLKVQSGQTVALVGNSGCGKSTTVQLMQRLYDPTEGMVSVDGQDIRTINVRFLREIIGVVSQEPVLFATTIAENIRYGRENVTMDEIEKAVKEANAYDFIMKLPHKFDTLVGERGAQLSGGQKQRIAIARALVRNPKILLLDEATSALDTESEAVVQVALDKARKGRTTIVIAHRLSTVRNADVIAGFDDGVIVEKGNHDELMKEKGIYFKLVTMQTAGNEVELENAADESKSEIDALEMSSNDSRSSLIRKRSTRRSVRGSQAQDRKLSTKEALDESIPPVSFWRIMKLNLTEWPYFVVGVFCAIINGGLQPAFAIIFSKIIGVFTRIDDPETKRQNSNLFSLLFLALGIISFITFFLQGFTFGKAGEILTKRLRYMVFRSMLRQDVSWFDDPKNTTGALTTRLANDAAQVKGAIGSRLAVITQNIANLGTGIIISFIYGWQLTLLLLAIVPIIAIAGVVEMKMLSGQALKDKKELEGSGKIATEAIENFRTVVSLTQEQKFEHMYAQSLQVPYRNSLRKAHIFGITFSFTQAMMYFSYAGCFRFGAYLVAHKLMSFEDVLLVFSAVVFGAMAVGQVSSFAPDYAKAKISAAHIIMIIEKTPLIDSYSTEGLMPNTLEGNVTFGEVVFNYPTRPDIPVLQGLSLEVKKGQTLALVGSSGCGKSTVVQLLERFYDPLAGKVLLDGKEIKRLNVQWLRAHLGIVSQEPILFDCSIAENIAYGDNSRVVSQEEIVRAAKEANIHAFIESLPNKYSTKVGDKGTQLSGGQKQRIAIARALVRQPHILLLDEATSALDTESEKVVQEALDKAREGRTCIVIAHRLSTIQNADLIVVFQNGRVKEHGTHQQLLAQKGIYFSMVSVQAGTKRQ

`CC(C)=CCC[C@](C)(O)[C@H]1CC[C@]2(C)[C@@H]1[C@H](O)C[C@@H]1[C@@]3(C)CC[C@H](O[C@@H]4O[C@H](CO)[C@@H](O)[C@H](O)[C@H]4O)C(C)(C)[C@@H]3CC[C@]12C` [GRh2, ginsenoside Rh2] was tested, and the “CLint (intrinsic clearance)” value (P-gp-mediated B to A transport in LLC-PK1-P-gp cells) was 502 µL/min, the efflux ratio at 20 μM (pig, LLC-PK1, LLC-PK1-P-gp cells, 20 μM, B to A Papp divided by A to B Papp, read-out: ER) was 18 and the Papp A→B at 20 μM (pig, LLC-PK1-P-gp cells, 20 μM, mean ± SD, n = 3, read-out: A to B permeability) was 0.08 ± 0.01 ×10⁻⁶ cm/s. The Papp B→A at 20 μM (pig, LLC-PK1-P-gp cells, 20 μM, mean ± SD, n = 3, read-out: B to A permeability) was 1.39 ± 0.13 ×10⁻⁶ cm/s.
